Source: ChEMBL document CHEMBL1201862, “PubChem BioAssay data set” (2004)
Several values for one entry are separate records, joined by “and”; a condition that tells them apart may be missing. Equal entries are not always repeated. Activity calls are given as the source filed them.

Experiments:
[1] = biological target: Glucose-6-phosphate 1-dehydrogenase (Homo sapiens, UniProt P11413); experiment: inhibition of Homo sapiens G6PD, dose series – biochemical, fluorescence, selectivity assay for P. falciparum G6PD inhibitor project, dose response (AID 504792); format: functional
Sequence of Glucose-6-phosphate 1-dehydrogenase (P11413 whole entry): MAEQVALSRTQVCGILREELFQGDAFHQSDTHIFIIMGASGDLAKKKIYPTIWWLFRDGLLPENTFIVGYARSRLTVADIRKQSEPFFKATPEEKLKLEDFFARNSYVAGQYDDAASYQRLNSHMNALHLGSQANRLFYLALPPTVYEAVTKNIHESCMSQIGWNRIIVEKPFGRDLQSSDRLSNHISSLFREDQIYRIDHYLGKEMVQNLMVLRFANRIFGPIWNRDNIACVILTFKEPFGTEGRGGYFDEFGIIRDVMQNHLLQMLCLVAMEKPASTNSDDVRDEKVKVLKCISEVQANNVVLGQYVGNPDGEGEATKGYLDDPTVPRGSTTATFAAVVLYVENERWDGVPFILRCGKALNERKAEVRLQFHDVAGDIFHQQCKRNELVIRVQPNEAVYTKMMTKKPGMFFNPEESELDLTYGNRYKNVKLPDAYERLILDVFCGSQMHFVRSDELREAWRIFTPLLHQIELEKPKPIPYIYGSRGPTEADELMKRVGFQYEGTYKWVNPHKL

Vero = experiment: cells; format: functional; conditions: Chlorocebus sabaeus
[2] = Luminescence Cell-Based Dose Response to Identify Activators of 5'UTR Stem-Loop Driven Prion Protein mRNA Translation in H4-C Neuroglioblastoma Cells. [Related pubchem assays: 1829 (Project Summary), 1814 (Primary HTS)]; format: functional
[3] = Luminescence Cell-Based Dose Confirmation HTS to Identify Activators of 5'UTR Stem-Loop Driven Alpha-Synuclein mRNA Translation in H4 Neuroglioblastoma Cells. [Related pubchem assays: 1829 (Project Summary), 1814 (Primary HTS)]; format: functional
[4] = Luminescence Cell-Based Dose Response HTS to Identify Activators of Luciferase Translation or Activity in H4 […] Cells. [Related pubchem assays: 1829 (Project Summary), 1814 (Primary HTS)]; format: functional
H4 = experiment: Luminescence Cell-Based Dose Response HTS to Identify Activators of 5'UTR Stem-Loop Driven Prion Protein mRNA Translation in H4 Neuroglioblastoma Cells. [Related pubchem assays: 1829 (Project Summary), 1814 (Primary HTS)]; format: functional; conditions: Homo sapiens
[5] = Luminescence Cell-Based Dose Response to Identify Activators of Luciferase Translation or Activity in H4-C Neuroglioblastoma Cells. [Related pubchem assays: 1829 (Project Summary), 1814 (Primary HTS)]; format: functional
[6] = Luminescence Cell-Based Dose Confirmation to Identify Activators of 5'UTR Stem-Loop Driven Alpha-Synuclein mRNA Translation in H4 Neuroglioblastoma Cells. [Related pubchem assays: 1829 (Project Summary), 1814 (Primary HTS)]; format: functional
Cytochrome P450 2C19 = Cytochrome P450 2C19 (Homo sapiens, UniProt P33261); experiment: Cytochrome panel assay with activity outcomes. Panel member name: p450-cyp2c19 Compounds with AC50 equal or less than 10 uM are considered active; format: functional; conditions: read-out: AC50
Sequence of Cytochrome P450 2C19 (P33261 whole entry): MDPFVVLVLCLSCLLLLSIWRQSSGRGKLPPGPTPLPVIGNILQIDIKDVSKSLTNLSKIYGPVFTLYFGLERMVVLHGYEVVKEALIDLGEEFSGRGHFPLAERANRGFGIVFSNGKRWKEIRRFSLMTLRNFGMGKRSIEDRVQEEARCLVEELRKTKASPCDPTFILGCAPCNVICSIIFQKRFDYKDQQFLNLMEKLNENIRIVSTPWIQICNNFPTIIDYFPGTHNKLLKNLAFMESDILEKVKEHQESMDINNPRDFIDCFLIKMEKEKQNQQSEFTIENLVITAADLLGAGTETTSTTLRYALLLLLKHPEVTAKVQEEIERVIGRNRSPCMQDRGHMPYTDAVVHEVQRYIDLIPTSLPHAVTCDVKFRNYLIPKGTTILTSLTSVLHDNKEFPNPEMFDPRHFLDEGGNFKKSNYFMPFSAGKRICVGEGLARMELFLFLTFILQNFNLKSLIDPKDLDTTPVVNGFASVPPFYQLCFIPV

Cytochrome P450 2C9 [7] = biological target: T1, Cytochrome P450 2C9 (Homo sapiens, UniProt P11712)
T1 sequence (P11712 whole entry): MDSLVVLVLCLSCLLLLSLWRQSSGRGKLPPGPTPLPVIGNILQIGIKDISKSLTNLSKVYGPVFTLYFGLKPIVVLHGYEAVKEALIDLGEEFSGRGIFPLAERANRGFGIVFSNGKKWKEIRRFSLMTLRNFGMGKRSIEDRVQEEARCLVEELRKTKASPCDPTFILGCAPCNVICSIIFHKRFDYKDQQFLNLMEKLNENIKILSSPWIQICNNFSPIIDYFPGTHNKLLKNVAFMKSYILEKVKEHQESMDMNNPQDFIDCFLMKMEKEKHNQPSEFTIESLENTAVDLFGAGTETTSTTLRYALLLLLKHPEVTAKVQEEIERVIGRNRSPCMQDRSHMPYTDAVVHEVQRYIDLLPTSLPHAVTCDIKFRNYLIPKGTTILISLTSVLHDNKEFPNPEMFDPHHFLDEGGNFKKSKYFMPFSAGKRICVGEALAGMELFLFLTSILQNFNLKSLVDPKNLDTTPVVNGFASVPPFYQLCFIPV

Cytochrome P450 3A4 [8] = biological target: T2, Cytochrome P450 3A4 (Homo sapiens, UniProt P08684);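 note: CYP3A4 tested as one member of a cytochrome P450 panel screen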
T2 sequence (P08684 whole entry): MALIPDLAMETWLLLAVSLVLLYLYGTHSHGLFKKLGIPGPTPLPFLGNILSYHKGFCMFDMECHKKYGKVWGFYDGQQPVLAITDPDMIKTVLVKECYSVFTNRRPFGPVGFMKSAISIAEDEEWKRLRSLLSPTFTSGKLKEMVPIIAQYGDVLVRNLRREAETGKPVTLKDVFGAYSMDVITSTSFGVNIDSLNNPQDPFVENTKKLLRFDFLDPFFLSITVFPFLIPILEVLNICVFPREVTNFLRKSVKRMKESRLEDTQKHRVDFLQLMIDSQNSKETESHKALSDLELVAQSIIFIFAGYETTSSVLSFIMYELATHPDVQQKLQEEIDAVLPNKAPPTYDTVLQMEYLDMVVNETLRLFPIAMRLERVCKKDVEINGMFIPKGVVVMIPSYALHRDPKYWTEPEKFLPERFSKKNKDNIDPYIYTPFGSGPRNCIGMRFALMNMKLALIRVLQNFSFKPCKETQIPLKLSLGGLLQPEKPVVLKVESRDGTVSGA

Cytochrome P450 2C9 [9] = biological target: T1, Cytochrome P450 2C9; remark: listed apart in the source
[10] = biological target: T3, Short transient receptor potential channel 4 (Mus musculus, UniProt Q9QUQ5); experiment: block of DAMGO-driven TRPC4 calcium entry – cell-based, HEK293 TRPC4/mu-opioid, Fluo-4 calcium, dose response (AID 434942); format: functional;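 note: potency of inhibitors blocking the TRPC4 calcium response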
T3 sequence (Q9QUQ5 whole entry): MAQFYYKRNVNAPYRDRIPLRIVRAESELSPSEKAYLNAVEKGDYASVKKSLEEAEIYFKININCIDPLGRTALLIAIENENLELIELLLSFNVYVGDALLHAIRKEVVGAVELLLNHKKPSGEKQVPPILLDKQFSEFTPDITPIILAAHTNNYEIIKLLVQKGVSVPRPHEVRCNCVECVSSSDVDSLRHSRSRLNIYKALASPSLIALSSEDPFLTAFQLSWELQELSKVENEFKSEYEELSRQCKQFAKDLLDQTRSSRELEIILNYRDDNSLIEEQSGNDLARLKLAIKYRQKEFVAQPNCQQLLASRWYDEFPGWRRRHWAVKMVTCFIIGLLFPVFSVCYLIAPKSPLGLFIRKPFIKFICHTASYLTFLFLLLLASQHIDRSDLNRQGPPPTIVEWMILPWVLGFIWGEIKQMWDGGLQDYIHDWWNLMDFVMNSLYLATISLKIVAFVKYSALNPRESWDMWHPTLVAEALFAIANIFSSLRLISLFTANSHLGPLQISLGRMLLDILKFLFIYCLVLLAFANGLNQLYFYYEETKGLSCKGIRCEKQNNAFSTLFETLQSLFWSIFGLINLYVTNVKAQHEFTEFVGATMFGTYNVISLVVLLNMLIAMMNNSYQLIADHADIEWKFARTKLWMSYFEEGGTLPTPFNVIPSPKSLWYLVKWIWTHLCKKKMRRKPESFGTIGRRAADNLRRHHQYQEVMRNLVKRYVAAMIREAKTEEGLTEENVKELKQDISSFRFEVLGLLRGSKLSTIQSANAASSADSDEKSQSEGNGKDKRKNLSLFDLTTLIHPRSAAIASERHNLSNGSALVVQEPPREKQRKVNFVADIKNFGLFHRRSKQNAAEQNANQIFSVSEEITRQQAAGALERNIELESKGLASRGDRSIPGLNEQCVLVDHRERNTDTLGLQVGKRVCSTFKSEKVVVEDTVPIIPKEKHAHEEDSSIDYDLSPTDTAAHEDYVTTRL

Cytochrome P450 2D6 = Cytochrome P450 2D6 (Homo sapiens, UniProt P10635);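 note: CYP2D6 member of a cytochrome P450 panel assay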
Sequence of Cytochrome P450 2D6 (P10635 whole entry): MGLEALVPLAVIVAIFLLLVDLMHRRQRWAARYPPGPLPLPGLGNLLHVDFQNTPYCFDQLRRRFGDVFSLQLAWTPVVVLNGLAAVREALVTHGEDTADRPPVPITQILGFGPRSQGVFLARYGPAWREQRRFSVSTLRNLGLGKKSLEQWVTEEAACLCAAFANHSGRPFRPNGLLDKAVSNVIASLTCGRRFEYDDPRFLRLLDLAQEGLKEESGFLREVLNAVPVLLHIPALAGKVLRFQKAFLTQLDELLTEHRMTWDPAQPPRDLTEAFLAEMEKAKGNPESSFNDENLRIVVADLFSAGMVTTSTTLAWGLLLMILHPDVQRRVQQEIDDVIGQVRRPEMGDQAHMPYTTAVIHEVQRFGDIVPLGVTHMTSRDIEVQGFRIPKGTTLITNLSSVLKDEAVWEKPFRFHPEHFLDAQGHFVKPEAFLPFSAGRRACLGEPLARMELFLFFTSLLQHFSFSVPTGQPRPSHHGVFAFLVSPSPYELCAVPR

Jurkat = experiment: blockers of NF-kB activation in T cells – Jurkat, luciferase reporter, luminescence, B- and T-cell, dose response (AID 489004); format: functional, cell-based; conditions: Homo sapiens;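 note: NF-kB luciferase reporter Jurkat cells stimulated with PMA plus ionomycin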
[11] = HEK-293T viability loss, compound-treated – cell-based, uHTS hits, cytotoxicity control for B/T-cell NF-kB inhibitor project, dose response (AID 489019); format: functional;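 note: IC50 reflects cytotoxicity as loss of cell viability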
Cytochrome P450 1A2 = biological target: T4, Cytochrome P450 1A2 (Homo sapiens, UniProt P05177);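 note: PubChem cytochrome P450 panel assay, CYP1A2 panel member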
T4 sequence (P05177 whole entry): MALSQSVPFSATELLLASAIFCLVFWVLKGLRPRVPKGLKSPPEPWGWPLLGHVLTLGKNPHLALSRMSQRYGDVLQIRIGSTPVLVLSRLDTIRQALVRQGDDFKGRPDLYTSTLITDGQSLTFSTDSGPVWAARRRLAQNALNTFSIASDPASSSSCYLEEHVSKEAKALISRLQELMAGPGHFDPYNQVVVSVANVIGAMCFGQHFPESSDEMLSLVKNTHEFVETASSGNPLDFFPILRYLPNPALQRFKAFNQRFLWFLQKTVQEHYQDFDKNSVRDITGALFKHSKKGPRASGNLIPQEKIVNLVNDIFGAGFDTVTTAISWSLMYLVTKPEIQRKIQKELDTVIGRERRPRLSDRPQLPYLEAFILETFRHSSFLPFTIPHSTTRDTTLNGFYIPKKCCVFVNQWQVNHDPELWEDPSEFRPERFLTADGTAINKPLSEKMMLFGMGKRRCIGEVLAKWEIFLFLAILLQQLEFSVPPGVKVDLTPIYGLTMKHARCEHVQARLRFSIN

[12] = biological target: T3, Short transient receptor potential channel 4; experiment: calcium entry via TRPC4 opening agents – cell-based, HEK293 TRPC4/mu-opioid, Fluo-4 calcium, dose response (AID 434937); format: functional
Coagulation factor XII = biological target: T5, Coagulation factor XII (Homo sapiens, UniProt P00748); format: functional;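 note: activated factor XIIa alpha cleaving a fluorogenic AMC peptide substrate; inhibitor potency from loss of enzyme activity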
T5 sequence (P00748 whole entry): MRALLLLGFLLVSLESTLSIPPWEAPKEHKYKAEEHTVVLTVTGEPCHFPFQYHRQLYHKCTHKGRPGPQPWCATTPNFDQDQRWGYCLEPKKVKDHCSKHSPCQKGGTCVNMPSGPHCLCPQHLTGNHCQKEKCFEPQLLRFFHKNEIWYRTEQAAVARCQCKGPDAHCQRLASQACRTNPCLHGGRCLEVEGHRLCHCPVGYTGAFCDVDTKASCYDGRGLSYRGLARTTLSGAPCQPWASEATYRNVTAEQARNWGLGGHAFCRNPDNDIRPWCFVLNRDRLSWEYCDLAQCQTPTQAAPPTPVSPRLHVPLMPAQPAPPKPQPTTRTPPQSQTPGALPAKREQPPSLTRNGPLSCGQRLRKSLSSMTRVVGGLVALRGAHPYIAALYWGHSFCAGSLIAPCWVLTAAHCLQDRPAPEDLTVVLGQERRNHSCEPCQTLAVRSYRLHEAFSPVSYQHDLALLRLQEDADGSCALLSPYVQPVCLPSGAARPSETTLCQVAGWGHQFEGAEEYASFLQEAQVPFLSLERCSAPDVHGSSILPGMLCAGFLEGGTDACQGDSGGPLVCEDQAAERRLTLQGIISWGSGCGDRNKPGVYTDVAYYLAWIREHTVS

[13] = biological target: T6, Heat shock factor protein 1 (Mus musculus, UniProt P38532); experiment: enhancement of HSF1-driven luciferase signal – cell-based, NIH3T3, luminescence, dose retest, confirmation (AID 435004); format: functional;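 note: stress induced by proteasome inhibitor MG132 added 30 min after compound; luciferase reporter driven by HSF1 response element in NIH3T3 cells; actives raise luminescence as potentiators of the MG132 stress response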
T6 sequence (P38532 whole entry): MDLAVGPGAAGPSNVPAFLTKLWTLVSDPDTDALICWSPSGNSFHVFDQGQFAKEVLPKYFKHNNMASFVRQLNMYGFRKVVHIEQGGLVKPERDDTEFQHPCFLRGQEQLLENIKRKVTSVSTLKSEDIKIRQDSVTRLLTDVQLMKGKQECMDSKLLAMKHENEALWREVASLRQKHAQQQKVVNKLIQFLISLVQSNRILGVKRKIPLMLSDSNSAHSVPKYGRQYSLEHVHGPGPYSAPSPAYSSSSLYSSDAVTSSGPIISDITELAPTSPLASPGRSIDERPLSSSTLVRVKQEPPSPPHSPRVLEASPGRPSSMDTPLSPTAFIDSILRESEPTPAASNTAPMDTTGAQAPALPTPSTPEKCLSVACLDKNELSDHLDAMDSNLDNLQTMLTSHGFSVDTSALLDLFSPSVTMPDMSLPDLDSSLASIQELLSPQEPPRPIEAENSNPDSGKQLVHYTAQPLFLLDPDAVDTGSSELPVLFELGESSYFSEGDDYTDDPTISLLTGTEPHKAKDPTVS

[14] = Luminescence Cell-Based Dose Retest to Confirm Inhibitors of Cancer Stem Cells. [Related pubchem assays (depositor defined):AID2717, AID2721]; format: functional; conditions: Homo sapiens
[15] = THP-1 cell cytotoxicity, dose response, cytotoxicity control for non-replicating M. tuberculosis project (AID 489025); format: functional
cells = format: functional
[16] = biological target: Luciferin 4-monooxygenase (Photinus pyralis, UniProt P08659); experiment: inhibition of purified Photinus pyralis luciferase – biochemical, luminescence, dose response (AID 1891)
Sequence of Luciferin 4-monooxygenase (P08659 whole entry): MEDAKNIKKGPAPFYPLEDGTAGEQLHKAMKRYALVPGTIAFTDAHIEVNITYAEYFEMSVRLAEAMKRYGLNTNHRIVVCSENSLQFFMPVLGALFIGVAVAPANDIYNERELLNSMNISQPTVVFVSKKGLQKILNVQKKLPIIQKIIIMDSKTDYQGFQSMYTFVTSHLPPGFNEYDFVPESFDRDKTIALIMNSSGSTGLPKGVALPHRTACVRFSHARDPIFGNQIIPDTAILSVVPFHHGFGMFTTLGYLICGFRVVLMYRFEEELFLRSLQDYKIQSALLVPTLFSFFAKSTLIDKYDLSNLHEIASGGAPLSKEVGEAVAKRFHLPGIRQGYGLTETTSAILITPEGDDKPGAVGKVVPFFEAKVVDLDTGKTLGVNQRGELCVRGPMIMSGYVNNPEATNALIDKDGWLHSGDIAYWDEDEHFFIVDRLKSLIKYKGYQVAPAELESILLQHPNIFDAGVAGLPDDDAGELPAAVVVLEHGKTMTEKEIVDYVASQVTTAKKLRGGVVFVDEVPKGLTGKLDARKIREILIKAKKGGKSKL

[17] = Luminescence Cell-Based Dose Confirmation HTS to Identify Inhibitors of Platelet Dense Granule Release. [Related pubchem assays: 1663 (Primary HTS), 1678 (Summary of Project)]; format: functional
Cytochrome P450 3A4 [18] = biological target: T2, Cytochrome P450 3A4; remark: listed apart in the source

COc1cc(NCCCn2cnc3c(OCc4ccccc4)ncnc32)cc(OC)c1OC
IC50 [1]: > 80 µM (inactive)

CCN(CC)CCCN(C(=O)c1ccccc1F)c1nc(-c2ccc(OC)cc2)cs1
CC50 (Vero): 17.6 µM (active)

c1csc(-c2nc(N3CCCCC3)no2)c1
EC50 [2]: 0.38 µM (active)
EC50 [3]: < 0.1 µM (active)
EC50 [4]: < 0.1 µM (active)
EC50 (H4): 1.22 µM (active)
EC50 [5]: 0.36 µM (active)
EC50 [6]: 0.29 µM (active)

CCOC(=O)c1ccc(N2C(=O)CC(Nc3ccc(CCO)cc3)C2=O)cc1 (stereo not drawn)
AC50 (Cytochrome P450 2C19): 8.91 µM (inconclusive)
AC50 (Cytochrome P450 2C9 [7]): 6.31 µM (inconclusive)
AC50 (Cytochrome P450 3A4 [8]): inconclusive

OC1(c2ccc(Cl)cc2)CCN(Cc2c[nH]c3ccccc23)CC1
AC50 (Cytochrome P450 3A4 [8]): inconclusive
AC50 (Cytochrome P450 2C9 [9]): inconclusive

O=C(C1CCN(CC2CC=CCC2)CC1)N(CCc1ccccc1)Cc1ccccc1 (stereo not drawn)
EC50 [10]: 2.66 µM (active)

COc1cc2c(cc1OC)[C@H](c1ccccc1)CN(C)CC2
AC50 (Cytochrome P450 2D6): 31.6 µM (inconclusive)
AC50 (Cytochrome P450 3A4 [8]): inconclusive

Cc1cc([N+](=O)[O-])nn1Cc1ccccc1F
IC50 (Jurkat): > 80 µM (inactive)
IC50 [11]: > 80 µM (inactive)
AC50 (Cytochrome P450 1A2): 22.4 µM (inconclusive)
AC50 (Cytochrome P450 2C9 [9]): inconclusive

COc1ccc(CCN(C)CCN2C(=O)c3ccccc3C2=O)cc1OC
EC50 [10]: 1.88 µM (active)
EC50 [12]: 1.06 µM (active)

CN(NC1OC(=O)c2ccccc21)c1ncc(Cl)cc1C(F)(F)F (stereo not drawn)
IC50 (Coagulation factor XII): > 50 µM (inactive)
EC50 [13]: > 260 µM (inactive)

CC(=O)O[C@H]1[C@H]2O[C@]23[C@@H]2CC[C@]4(O)C[C@@H](O)CC[C@]4(C)[C@H]2CC[C@]3(C)[C@H]1c1ccc(=O)oc1 [CINOBUFOTALIN]
AC50 [14]: < 0.16 µM (active)
IC50 (Jurkat): 3.19 µM (active)
IC50 [11]: > 80 µM (inactive)

COc1ccc(CCc2cc(OC)c(OC)c(OC)c2)cc1
CC50 (Vero): 1.66 µM (active)

O=C1C(c2cc(O)c3ccccc3n2)=C(O)c2ccccc21
IC50 [1]: 53.4 µM (inactive)

COc1ccc(OC)c(C2C3=C(O)OCC3=Nc3cc4c(cc32)OCO4)c1 (stereo not drawn)
IC50 (Jurkat): > 80 µM (inactive)
IC50 [11]: > 80 µM (inactive)
AC50 (Cytochrome P450 2D6): 22.4 µM (inconclusive)
AC50 (Cytochrome P450 1A2): 10 µM (inconclusive)
AC50 (Cytochrome P450 2C9 [7]): 7.94 µM (inconclusive)

COCCn1c(SCC(=O)c2ccccc2)nc2ccccc2c1=O
EC50 [10]: 0.376 µM (active)

O=C(c1cnccn1)N1CCC2(CC1)CCN(c1ccccn1)CC2
AC50 (Cytochrome P450 3A4 [8]): inconclusive

COC(=O)Cc1c(C)nc2ncnn2c1O
IC50 (Coagulation factor XII): > 50 µM (inactive)

CCCCNc1nc2ccccc2[nH]1
EC50 [10]: 2.99 µM (active)

Cc1cc(=O)n2c(n1)SCOC2
IC50 (Coagulation factor XII): > 50 µM (inactive)

CNC(=O)c1ccc(N(Cc2ccccc2)S(C)(=O)=O)cc1
IC50 (Coagulation factor XII): > 50 µM (inactive)

O=C(CCc1ccc(Oc2cc([N+](=O)[O-])cc([N+](=O)[O-])c2)cc1)N1CCCCC1
CC50 [15]: > 40 µM (active)
IC50 (cells): 11.4 µM (active)

Cc1ccc(C(=O)ONc2ccc(N=O)cc2)cc1
EC50 [16]: < 0.088 µM (active)
EC50 [17]: 2.69 µM (active)
IC50 (Coagulation factor XII): 29.8 µM (active)

N=C(N)NC(=N)Nc1cccc(Cl)c1
AC50 (Cytochrome P450 2D6): 25.1 µM (inconclusive) and 39.8 µM (inconclusive)
AC50 (Cytochrome P450 3A4 [18]): 79.4 µM (inconclusive)
AC50 (Cytochrome P450 3A4 [8]): inconclusive
